Reference: the supplement of paper PMC11208160

Assay: recombinant UMI read abundance after kanamycin selection (control-corrected) (log10(CPM+1)); higher = more efficient recombination; extreme values may be limits of the assay; sequences stand for … in AGTGCAGAGAAAATCGGCCAGTTTTCTCTGCCTGCAGTCCGCATGCCGTGGGACCCCTTGGGTTCTAACCTGTTGCCTAGATTTATGCAGCGGACTGCCTTTCTCCCAAAGTGATAAACCGG…AGGTTGGTTTCACT; site = the 11-nt donor
Outline: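 For the IS621 bridge recombinase, a pooled Escherichia coli screen tested donor and donor-binding-loop pairs. Cells received the pair library together with a target plasmid encoding a fixed target and T7-inducible recombinase, then went onto IPTG (0.07 mM) plus kanamycin or unselected plates in duplicate. After PCR across the donor–target junction and sequencing, recombinant UMI counts were normalized to CPM, averaged, and scaled by control-derived factors. Each value is given as log10(CPM+1).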
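Also: IS621 bridge recombinase in Escherichia coli cells against a fixed T5 target plasmid.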

Sequence	recombinant UMI read abundance (log10)
GCCACGTCATGGACCGGTTTTCCCGGTAATCCGTATTTGTA (site GCCACGGCTTA)	0
GCCACGTCATGGACCGGTTTTCCCGGTAATCCGTATTTGTA (site GCCACGTCTTA)	2.47
GCCACTGCATGGACCGGTTTTCCCGGTAATCCGTATTTGCC (site GCAACTGCTGG)	1.19
GCCACTGCATGGACCGGTTTTCCCGGTAATCCGTATTTGCC (site GCCACTGCTGG)	1.63
GCCACTGCATGGACCGGTTTTCCCGGTAATCCGTATTTGCC (site GCGACTGCTGG)	0
GCCACTGCATGGACCGGTTTTCCCGGTAATCCGTATTTGCC (site GCTACTGCTGG)	0
GCCACTTCATGGACCGGTTTTCCCGGTAATCCGTATTTGTT (site GCCACTTCTAA)	0.855
GCCAGACCATGGACCGGTTTTCCCGGTAATCCGTATTTGGA (site GCCAGACCTTC)	0.0205
GCCAGTCCATGGACCGGTTTTCCCGGTAATCCGTATTTGAT (site GCCAGTCCTAT)	0.00932
GCCATACCATGGACCGGTTTTCCCGGTAATCCGTATTTGTG (site GCCATACCTCA)	0.00697
GCCATGCCATGGACCGGTTTTCCCGGTAATCCGTATTTGTA (site GCCAAGCCTTA)	0.00915
GCCATGCCATGGACCGGTTTTCCCGGTAATCCGTATTTGTA (site GCCACGCCTTA)	0.0146
GCCATGCCATGGACCGGTTTTCCCGGTAATCCGTATTTGTA (site GCCAGGCCTTA)	0.00785
GCCATGCCATGGACCGGTTTTCCCGGTAATCCGTATTTGTA (site GCCATGCCTTA)	1.26
GCCCCGCCATGGACCGGTTTTCCCGGTAATCCGTATTTGTA (site GCCACGCCTTA)	0.324
GCCCCGCCATGGACCGGTTTTCCCGGTAATCCGTATTTGTA (site GCCCCGCCTTA)	0.478
GCCCCGCCATGGACCGGTTTTCCCGGTAATCCGTATTTGTA (site GCCGCGCCTTA)	0.0226
GCCCCGCCATGGACCGGTTTTCCCGGTAATCCGTATTTGTA (site GCCTCGCCTTA)	0.00782
GCCCGAGCATGGACCGGTTTTCCCGGTAATCCGTATTTGAA (site GCCCGAGCTTT)	1.82
GCCCTCGCATGGACCGGTTTTCCCGGTAATCCGTATTTGAC (site GCCCTCGCTGT)	2.61
GCCGATACATGGACCGGTTTTCCCGGTAATCCGTATTTGTA (site GCCGATACTTA)	1.91
GCCGGCTCATGGACCGGTTTTCCCGGTAATCCGTATTTGGA (site GCCGGCTCTTC)	0.632
GCCGTATCATGGACCGGTTTTCCCGGTAATCCGTATTTGAA (site GCCGTATCTTT)	2.31
GCCTACTCATGGACCGGTTTTCCCGGTAATCCGTATTTGGA (site GCCTACTCTTC)	1.91
GCCTCCGCATGGACCGGTTTTCCCGGTAATCCGTATTTGAG (site GCCTCCGCTCT)	0.364

Sequence	recombinant UMI read abundance (log10)
GCCTCCTCATGGACCGGTTTTCCCGGTAATCCGTATTTGCT (site GCCTCCTCTAG)	2.9
GCCTTAGCATGGACCGGTTTTCCCGGTAATCCGTATTTGCC (site GCCTTAGCTGG)	0
GCGAAAACATGGACCGGTTTTCCCGGTAATCCGTATTTGCC (site GCGAAAACTAG)	0
GCGAAAACATGGACCGGTTTTCCCGGTAATCCGTATTTGCC (site GCGAAAACTCG)	0
GCGAAAACATGGACCGGTTTTCCCGGTAATCCGTATTTGCC (site GCGAAAACTGG)	0
GCGAAAACATGGACCGGTTTTCCCGGTAATCCGTATTTGCC (site GCGAAAACTTG)	0
GCGAAAACATGGACCGGTTTTCCCGGTAATCCGTATTTGCT (site ACGAAAACTAG)	2.25
GCGAAAACATGGACCGGTTTTCCCGGTAATCCGTATTTGCT (site CCGAAAACTAG)	0
GCGAAAACATGGACCGGTTTTCCCGGTAATCCGTATTTGCT (site GAGAAAACTAG)	0
GCGAAAACATGGACCGGTTTTCCCGGTAATCCGTATTTGCT (site GCAAAAACTAG)	0
GCGAAAACATGGACCGGTTTTCCCGGTAATCCGTATTTGCT (site GCCAAAACTAG)	0
GCGAAAACATGGACCGGTTTTCCCGGTAATCCGTATTTGCT (site GCGAAAACTAA)	0.207
GCGAAAACATGGACCGGTTTTCCCGGTAATCCGTATTTGCT (site GCGAAAACTAC)	0
GCGAAAACATGGACCGGTTTTCCCGGTAATCCGTATTTGCT (site GCGAAAACTAG)	0.854
GCGAAAACATGGACCGGTTTTCCCGGTAATCCGTATTTGCT (site GCGAAAACTAT)	0.00596
GCGAAAACATGGACCGGTTTTCCCGGTAATCCGTATTTGCT (site GCGAAAACTCG)	0
GCGAAAACATGGACCGGTTTTCCCGGTAATCCGTATTTGCT (site GCGAAAACTGG)	0
GCGAAAACATGGACCGGTTTTCCCGGTAATCCGTATTTGCT (site GCGAAAACTTG)	0
GCGAAAACATGGACCGGTTTTCCCGGTAATCCGTATTTGCT (site GCGAAACCTAG)	0
GCGAAAACATGGACCGGTTTTCCCGGTAATCCGTATTTGCT (site GCGAAAGCTAG)	0
GCGAAAACATGGACCGGTTTTCCCGGTAATCCGTATTTGCT (site GCGAAATCTAG)	0.325
GCGAAAACATGGACCGGTTTTCCCGGTAATCCGTATTTGCT (site GCGAACACTAG)	0.232
GCGAAAACATGGACCGGTTTTCCCGGTAATCCGTATTTGCT (site GCGAAGACTAG)	0
GCGAAAACATGGACCGGTTTTCCCGGTAATCCGTATTTGCT (site GCGAATACTAG)	0
GCGAAAACATGGACCGGTTTTCCCGGTAATCCGTATTTGCT (site GCGACAACTAG)	0.0316

Sequence	recombinant UMI read abundance (log10)
GCGAAAACATGGACCGGTTTTCCCGGTAATCCGTATTTGCT (site GCGAGAACTAG)	0
GCGAAAACATGGACCGGTTTTCCCGGTAATCCGTATTTGCT (site GCGATAACTAG)	0.603
GCGAAAACATGGACCGGTTTTCCCGGTAATCCGTATTTGCT (site GCGCAAACTAG)	0
GCGAAAACATGGACCGGTTTTCCCGGTAATCCGTATTTGCT (site GCGGAAACTAG)	1.21
GCGAAAACATGGACCGGTTTTCCCGGTAATCCGTATTTGCT (site GCGTAAACTAG)	1.73
GCGAAAACATGGACCGGTTTTCCCGGTAATCCGTATTTGCT (site GCTAAAACTAG)	0
GCGAAAACATGGACCGGTTTTCCCGGTAATCCGTATTTGCT (site GGGAAAACTAG)	0
GCGAAAACATGGACCGGTTTTCCCGGTAATCCGTATTTGCT (site GTGAAAACTAG)	0
GCGAAAACATGGACCGGTTTTCCCGGTAATCCGTATTTGCT (site TCGAAAACTAG)	0
GCGAAGCCATGGACCGGTTTTCCCGGTAATCCGTATTTGCG (site GCGAAGCCTCA)	0.0182
GCGAAGCCATGGACCGGTTTTCCCGGTAATCCGTATTTGCG (site GCGAAGCCTCC)	0.0276
GCGAAGCCATGGACCGGTTTTCCCGGTAATCCGTATTTGCG (site GCGAAGCCTCG)	0.845
GCGAAGCCATGGACCGGTTTTCCCGGTAATCCGTATTTGCG (site GCGAAGCCTCT)	0.455
GCGAAGGCATGGACCGGTTTTCCCGGTAATCCGTATTTGGG (site GCGAAGACTCC)	0.255
GCGAAGGCATGGACCGGTTTTCCCGGTAATCCGTATTTGGG (site GCGAAGCCTCC)	0.00939
GCGAAGGCATGGACCGGTTTTCCCGGTAATCCGTATTTGGG (site GCGAAGGCTCC)	0.562
GCGAAGGCATGGACCGGTTTTCCCGGTAATCCGTATTTGGG (site GCGAAGTCTCC)	0.779
GCGAATACATGGACCGGTTTTCCCGGTAATCCGTATTTGCT (site GCGAAAACTAG)	0
GCGAATACATGGACCGGTTTTCCCGGTAATCCGTATTTGCT (site GCGAACACTAG)	0
GCGAATACATGGACCGGTTTTCCCGGTAATCCGTATTTGCT (site GCGAAGACTAG)	0
GCGAATACATGGACCGGTTTTCCCGGTAATCCGTATTTGCT (site GCGAATACTAG)	0
GCGAATGCATGGACCGGTTTTCCCGGTAATCCGTATTTGGA (site GCGAATGCTTC)	1.42
GCGACGCCATGGACCGGTTTTCCCGGTAATCCGTATTTGGG (site GCGAAGCCTCC)	0.0164
GCGACGCCATGGACCGGTTTTCCCGGTAATCCGTATTTGGG (site GCGACGCCTCC)	0.00484
GCGACGCCATGGACCGGTTTTCCCGGTAATCCGTATTTGGG (site GCGAGGCCTCC)	0.0192
